Laboratory results from patent US20250177566A1, “USE OF CHEMICAL EPIGENETIC MODIFIERS TO MODULATE GENE EXPRESSION” (The University of North Carolina at Chapel Hill, priority 2022, published 2025).

Columns and labels:
[1] = molecular target: T1, BRD4 (Homo sapiens, UniProt O60885+P62942); assay: BRD4 ChIP-seq, HCT116; format: cell-based
T1 construct: achieved via the accumulation of endogenous epigenetic machinery at the designed gRNA targeted gene locus; endogenous in cells; host or cells: HCT116 cells stably expressing dCas9 and MS2-FKBP*x2, transfected with CXCR4 or NT gRNA
T1 sequence (P62942 2-108 limits assumed, other chains not shown): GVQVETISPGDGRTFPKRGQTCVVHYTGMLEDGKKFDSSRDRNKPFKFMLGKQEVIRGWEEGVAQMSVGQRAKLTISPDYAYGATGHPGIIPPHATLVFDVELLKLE
From the text: Given that SLF*-CEMa facilitates gene activation via recruitment of BET proteins including BRD4, BRD4 enrichment at a specific targeted gene locus was investigated to further validate the mechanism of CEM207. Based on the alamarBlue cell viability assay performed with HEK293T and HCT116 cells, CEM207 can have different toxicity effects on different cell lines after 4 days of exposure. Specifically, HCT116 appeared to be more tolerant to CEM207 treatment. […] Based on the cell viability data, chromatin immunoprecipitation-qPCR (ChIP-qPCR) was performed in stably infected HCT116 cells. […] The signal change was measured between samples when only CEM207 or gRNA are present and those where both are present. […] To determine outlier significance, a “z-score” distribution was calculated by taking the scaled means of the x- and y-axis values and calculated P values for each point within this distribution. […]
ChIP-seq library preparation. […] Libraries were sequenced to a depth of 30 million […] (75-bp single-end reads) on an Illumina NextSeq 500.
ChIP-seq analyses. Reads from the sequencer were demultiplexed using bcl2fastq (v2.20.0). Sequencing adapters on reads were trimmed using cutadapt (v1.12) using options -a GATCGGAAGAGC (SEQ ID NO: 35) and—minimum-length 36 in […]. […]

[2] = molecular target: T1, BRD4; assay: BRD4 ChIP-qPCR near the CXCR4 transcription start site, HCT116; format: cell-based; settings: FIG. 8, 25 nM, 24 hrs
Description: (§1) FIGS. 8A-8B show alamarBlue cell viability assays. HEK293T or HCT116 cells were plated in 96-well plates 24 hrs before chemical treatment of 0.001, 0.01, 0.1, 1, 10, 50, and 100 μM CEM207 was added. Another group of cells were treated with all concentrations of CEM207 mentioned above along with 200 nM CEM87 in all samples. After 4 days of chemical exposure, cell growth was measured by fluorescence. […] HCT116 cells were stably infected with dCas9 and MS2-FKBP*x2 constructs and transfected with CXCR4 gRNA. After 24 hrs of 25 nM CEM207 treatment, ChIP-qPCR was performed at different base pair distances from the transcription start site of CXCR4 gene. […] Error bars represent the standard deviation.
Given that SLF*-CEMa facilitates gene activation via recruitment of BET proteins including BRD4, BRD4 enrichment at a specific targeted gene locus was investigated to further validate the mechanism of CEM207. Based on the alamarBlue cell viability assay performed with HEK293T and HCT116 cells, CEM207 can have different toxicity effects on different cell lines after 4 days of exposure. […] The signal change was measured between samples when only CEM207 or gRNA are present and those where both are present. […] To determine outlier significance, a “z-score” distribution was calculated by taking the scaled means of the x- and y-axis values and calculated P values for each point within this distribution. […]

[3] = system: HCT116 cells; assay: alamarBlue cell viability assay, HCT116; format: cell-based, human
Description: as §1
AlamarBlue cell viability assay. HEK293T or HCT116 cells were placed in black 96-well plates with clear bottom. 24 hrs later, media was exchanged to include 0.001, 0.01, 0.1, 1, 10, 50, 100 μM concentrations of CEM207, or all CEM207 concentrations above along with 200 nM CEM87. After 4 days of chemical exposure, alamarBlue Cell Viability Reagent (Invitrogen, DAL1025) was added to each well. Cells were incubated at 37° C. for 4 hrs and fluorescence was read using the TECAN Infinite F200 Fluorescence Microplate Reader. IC50 values were calculated using GraphPad Prism 9.

CC[C@H](C(=O)N1CCCC[C@H]1C(=O)O[C@H](CCc1ccc(OC)c(OC)c1)c1cccc(OCC(=O)NCCOCCOCCNC(=O)C[C@@H]2N=C(c3ccc(Cl)cc3)c3c(sc(C)c3C)-n3c(C)nnc32)c1)c1cc(OC)c(OC)c(OC)c1 [CEM207, (R)-1-(3-((14-((S)-4-(4-Chlorophenyl)-2,3,9-trimethyl-6H-thieno[3,2-f][1,2,4]triazolo[4,3-a][1,4]diazepin-6-yl)-2,13-dioxo-6,9-dioxa-3,12-diazatetradecyl)oxy)phenyl)-3-(3,4-dimethoxyphenyl) propyl(S)-1-((S)-2-(3,4,5-trimethoxyphenyl)butanoyl) piperidine-2-carboxylate]
BRD4 ChIP-seq signal at the CXCR4 locus ([1]; 25 nM CEM207 + sgCXCR4): well-defined BRD4 signal peak at the CXCR4 locus | BRD4 peaks having a log2 fold-change in signal less than two in either direction ([1]; off-target assessment, CEM207 or gRNA only vs both present): 96.8% | fold change, BRD4 ChIP-qPCR (CXCR4 gRNA vs NT gRNA) ([2]; +40 bp from CXCR4 TSS): 2.7 fold | fold change, BRD4 ChIP-qPCR (CXCR4 gRNA vs NT gRNA) ([2]; +300 bp from CXCR4 TSS): 1.2 fold | IC50 ([3]; CEM207 alone, 4 days of exposure): 870 nM | IC50 ([3]; CEM207 in the background of 200 nM CEM87, 4 days of exposure): 359 nM
